How the values were obtained:
[1] = tested on: MV 4-11 cells (FLT3-ITD); assay: Cell survival in MV-4-11 cells (Cell Counting Kit-8); format: cell-based, human; settings: Homo sapiens, MV4-11, 72 hours
Method: Human acute myelogenous leukemia (AML) cell line, MV 4-11 (ATCC #CRL-9591), was obtained from the American Type Culture Collection (ATCC; Manassas, Va., USA). Growth of this tumor cell line is dependent upon the expression of an activated form of the FLT3 tyrosine kinase receptor carrying an internal tandem duplication (ITD) mutation, which is the most common molecular defect associated with AML (K. W. Yee et al., Blood 100:2941-2949, 2002). MV 4-11 cells (20,000 cells/well) were cultured in 96-well plates and maintained at 37° C. for several hours. The cells were incubated at 37° C. for 72 hours with various concentrations of compounds of the invention, 17AAG, or DMAG. 17AAG and DMAG are Hsp90 inhibitors that are currently in clinical trials and are used here as positive controls for Hsp90 inhibition. Cell survival was measured with Cell Counting Kit-8 (Dojindo Laboratories, Cat # CK04).

[2] = tested on: human acute myelogenous leukemia tumor cell line Mv 4-11; assay: Mv 4-11 (FLT3-ITD) nude mouse xenograft model; format: in vivo, human (xenograft in nude mouse); settings: for % T/C value: nude mice, 3 doses
Method: The human acute myelogenous leukemia (AML) cell line, Mv 4-11 (ATCC #CRL-9591), was obtained from the American Type Culture Collection (ATCC; Manassas, Va., USA). Growth of this tumor cell line is dependent upon the expression of an activated form of the FLT3 tyrosine kinase receptor carrying an internal tandem duplication (ITD) mutation, which is the most common molecular defect associated with AML (K. W. Yee et al., Blood 100:2941-2949, 2002). The cells were cultured in growth media prepared with Iscove's Modified Dulbecco's Media, 10% fetal bovine serum (FBS), 1% 100× Penicillin-Streptomycin, 1% 100× sodium pyruvate and 1% 100×MEM non-essential amino acids. FBS was obtained from ATCC and all other reagents were obtained from Invitrogen Corp. (Carlsbad, Calif., USA). Cells that had been cryopreserved in liquid nitrogen were rapidly thawed at 37° C. and transferred to a tissue culture flask containing growth media and then incubated at 37° C. in a 5% CO2 incubator. To expand the cell line, cultures were passaged 1:2 to a density of 5×10 (6) cells/ml every three days by adding an equal volume of fresh growth media. When the flasks reached a density of approximately 10×10 (6) cells/ml, the above passaging process was repeated until sufficient cells had been obtained for implantation into mice.
Seven to eight week old, female Crl:CD-1-nuBR (nude) mice were obtained from Charles River Laboratories (Wilmington, Mass., USA). Animals were housed 4-5/cage in micro-isolators, with a 12 hr/12 hr light/dark cycle, acclimated for at least 1 week prior to use and fed normal laboratory chow ad libitum. Studies were conducted on animals between 8 and 10 weeks of age at implantation. To implant Mv 4-11 tumor cells into nude mice, cell cultures were centrifuged to pellet the cells, the supernatant was aspirated, the cell pellet was resuspended in 10 ml of growth media and the cell number determined using a hemocytometer. […]
Tumors were then permitted to develop in vivo until the majority reached 100-200 mm^3 in tumor volume, which typically required 1-2 weeks following implantation. […] Tumor volumes (V) were calculated by caliper measurement of the width (W), length (L) and thickness (T) of tumors using the following formula: V=0.5236×(L×W×T). Animals were randomized into treatment groups so that the median tumor volumes of each group were similar at the start of dosing. % T/C values, as a measure of efficacy, were determined as follows: • (i) If ΔT>0: % T/C=(ΔT/ΔC)×100 • (ii) If ΔT<0: % T/C=(ΔT/T0)×100 • (iii) ΔT=Change in median tumor volume between start of dosing and the end of study. • (iv) ΔC=Change in median tumor volume between start of dosing and the end of study. • (v) T0=Median tumor volume at start of dosing. […]

[3] = tested on: P815 cells (c-Kit D814Y); assay: Cell survival in mouse mastacytoma cell line P815 (Cell Counting Kit-8); format: cell-based; settings: 72 hours
Method: Mouse mastacytoma cell line P815 was obtained from the American Type Culture Collection (ATCC; Manassas, Va., USA). […] P815 cells (20,000 cells/well) were cultured in 96-well plates and maintained at 37° C. for several hours. […] 17AAG and 17DMAG are Hsp90 inhibitors that are currently in clinical trials and are used here as positive controls for Hsp90 inhibition. […] Cell survival was measured with Cell Counting Kit-8 (Dojindo Laboratories, Cat # CK04).

[4] = 125 mg/kg i.v. 1 time per week, day 41

CC(C)c1cc(-c2nnc(O)n2-c2ccc3c(ccn3C)c2)c(O)cc1O [Compound 226, 3-(2,4-di-hydroxy-5-isopropyl-phenyl)-4-(1-methyl-indol-5-yl)-5-hydroxy-[1,2,4] triazole]
IC50 [1]: < 4 nM | average bodyweight loss relative to the start of the study [2, 4]: −1.4% (+/−1.6 SEM) | animals with no apparent tumors ([2]; 125 mg/kg treatment group, by day 41 (end of the study)): 2 of 8 | % T/C value ([2]; 50 mg/kg i.v. 1 time per week, day 41): −63.8% | % T/C value [2, 4]: −93.0% | IC50 for cell survival (comparison) [3]: lower IC50 for cell survival than 17AAG, 17DMAG or Gleevec

Source: patent US20080004266A1, “Method for treating proliferative disorders associated with protooncogene products” (priority 2006, published 2008)
